# US20040224981A1, “Antibacterial methods and compositions” (priority 2003, published 2004)
# Like-named read-outs stand apart in the source and are kept apart here.
# How the values were obtained:
# [1] = tested on: S. aureus; assay: MIC against S. aureus strains and clinical isolates (broth microdilution); type: cell-based, Staphylococcus aureus; settings: for MIC90: read-out: MIC90; for MIC50: read-out: MIC50
# Method in brief: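 Broth microdilution per NCCLS in cation-supplemented Mueller-Hinton broth, final inoculum 5×10^5 CFU/ml from 0.5 McFarland suspensions diluted 1:10. Trays incubated aerobically overnight with quality control strains each run. Checkerboard FIC index: ≦0.5 synergy, >0.5 to 4 additive/indifferent, >4.0 antagonism.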
# [2] = tested on: E. faecalis; assay: MIC against E. faecalis; type: cell-based; settings: for MIC: Enterococcus faecalis, read-out: MIC
# [3] = tested on: MRS-resistant mutants of S. aureus; assay: Susceptibility (MIC) of MRS-resistant mutants of S. aureus; type: cell-based; settings: Staphylococcus aureus
# Experimental: MRS-resistant mutants generated in vitro in either serial passage or spontaneous resistance development studies were evaluated for susceptibility to mupirocin alone and in a 1:1 combination with MRSi compound 5.
# [4] = tested on: S. epidermidis; assay: MIC against S. epidermidis; type: cell-based
# Experimental: (§1) The MRS inhibitor 4 alone and in combination with mupirocin (mupirocin salt and 1:1 combination) were tested against a collection of Gram-positive pathogens.
# (§2) The MRS inhibitor 8 was also prepared as a fusidate and mupirocinate salt and tested for antibacterial activity against Gram-positive bacteria (Table 3). […] MRSi compound 8 alone and the fusidate and mupirocin salts were active against mupirocin-resistant S. aureus and S. epidermidis and organisms such as E. faecalis that are not susceptible to mupirocin.
# (§3) The MRS inhibitor 5 acetate and mupirocin salts were tested against a collection of Gram-positive bacteria.
# [5] = tested on: S. pyogenes; assay: MIC against S. pyogenes; type: cell-based, Streptococcus pyogenes
# Experimental: as §1
# S. pyogenes is also a significant skin pathogen and 48 recent clinical isolates were tested for their susceptibility to MRSi compound 5 alone (acetate) and in combination (1:1) with mupirocin (mupirocinate).
# [6] = tested on: S. hemolyticus; assay: MIC against S. hemolyticus; type: cell-based
# Experimental: as §1, §2, §3
# [7] = Staphylococcus aureus, oxacillin-susceptible S. aureus, Oxa-S (20)
# [8] = Staphylococcus aureus, recent clinical isolates of S. aureus, All (62)
# [9] = recent clinical isolates of E. faecalis, ALL (28)
# [10] = 48 recent clinical isolates of S. pyogenes
smiles,measurement,setting,value
"C/C(=C\C(=O)OCCCCCCCCC(=O)O)C[C@@H]1OC[C@H](C[C@@H]2O[C@H]2[C@@H](C)[C@H](C)O)[C@@H](O)[C@H]1O [Mupirocin, Pseudomonic acid A]",MIC90,"[1]; Staphylococcus aureus, oxacillin-resistant S. aureus, Oxa-R (42)",> 8 µg/mL
same,MIC,"[1]; Staphylococcus aureus, oxacillin-resistant S. aureus, Oxa-R (42), read-out: MIC Mode",0.12 µg/mL
same,MIC50,[1]; [7],0.12 µg/mL
same,MIC90,[1]; [7],> 8 µg/mL
same,MIC,"[1]; Staphylococcus aureus, oxacillin-susceptible S. aureus, Oxa-S (20), read-out: MIC Mode",0.12 µg/mL
same,MIC50,[1]; [8],0.12 µg/mL
same,MIC90,[1]; [8],> 8 µg/mL
same,MIC,"[1]; Staphylococcus aureus, recent clinical isolates of S. aureus, All (62), read-out: MIC Mode",0.12 µg/mL
same,MIC,"[1]; Table 12, S. aureus 25-670, high level mupirocin-resistant, agent alone",>128 8 g/mL
same,MIC50,"[2]; E. faecalis, Van-R(11)",> 8 µg/mL
same,MIC90,"[2]; E. faecalis, Van-R(11)",> 8 µg/mL
same,Mode (MIC),"[2]; E. faecalis, Van-R(11)",> 8 µg/mL
same,MIC50,"[2]; E. faecalis, Van-S (16)",> 8 µg/mL
same,MIC90,"[2]; E. faecalis, Van-S (16)",> 8 µg/mL
same,Mode (MIC),"[2]; E. faecalis, Van-S (16)",> 8 µg/mL
same,MIC,"[2]; ATCC29212, Table 2, E. faecalis ATCC 29212",8 µg/mL
same,MIC,"[2]; ATCC29212, Table 3, E. faecalis ATCC 29212",8 µg/mL
same,MIC,"[2]; ATCC29212, Table 4, E. faecalis ATCC 29212",> 8 µg/mL
same,MIC,"[2]; ATCC 51299 / VRE, Table 8, E. faecalis ATCC 51299 (VRE)",32 µg/mL
same,MIC,"[2]; Table 2, E. faecalis 1",8 µg/mL
same,MIC,"[2]; Table 2, E. faecalis 7",8 µg/mL
same,MIC,"[2]; Table 3, E. faecalis 1",8 µg/mL
same,MIC,"[2]; Table 3, E. faecalis 7",8 µg/mL
same,MIC,"[2]; Table 4, E. faecalis 1",> 8 µg/mL
same,MIC,"[2]; Table 4, E. faecalis 7",> 8 µg/mL
same,MIC,"[2]; Table 8, E. faecalis 1",32 µg/mL
same,MIC,"[2]; Table 8, E. faecalis 7",64 µg/mL
same,MIC50,[2]; [9],> 8 µg/mL
same,MIC90,[2]; [9],> 8 µg/mL
same,Mode (MIC),[2]; [9],> 8 µg/mL
same,MIC,"[3]; ATCC29213, S. aureus ATCC 29213, metS wild-type",0.12 µg/mL
same,MIC,"[3]; S. aureus SP-9B5, metS I57N, V296F",0.5 µg/mL
same,MIC,"[3]; S. aureus SP-21A, metS A77V",1 µg/mL
same,MIC,"[3]; read-out: MICs ranging, all the MRS-resistant mutants",0.12 to 1 µg/mL
same,MIC,"[4]; Staphylococcus epidermidis, Table 2, S. epidermidis NRS6, read-out: MIC",> 8 µg/mL
same,MIC,"[4]; Staphylococcus epidermidis, Table 2, S. epidermidis NRS7, read-out: MIC",8 µg/mL
same,MIC,"[4]; Staphylococcus epidermidis, Table 2, S. epidermidis NRS8, read-out: MIC",> 8 µg/mL
same,MIC,"[4]; Table 3, S. epidermidis NRS6",>8 µg/mL
same,MIC,"[4]; Table 3, S. epidermidis NRS7",8 µg/mL
same,MIC,"[4]; Table 3, S. epidermidis NRS8",>8 µg/mL
same,MIC,"[4]; Table 4, S. epidermidis NRS6",>8 µg/mL
same,MIC,"[4]; Table 4, S. epidermidis NRS7",8 µg/mL
same,MIC,"[4]; Table 4, S. epidermidis NRS8",>8 µg/mL
same,MIC50,[5]; [10],0.12 µg/mL
same,MIC90,[5]; [10],0.25 µg/mL
same,Mode (MIC),[5]; [10],0.12 µg/mL
same,MIC Range,"[5]; 48 recent clinical isolates of S. pyogenes, in µg/mL",0.03-0.5
same,MIC,"[5]; Streptococcus pyogenes, ATCC19615, Table 2, S. pyogenes ATCC 19615, read-out: MIC",0.12 µg/mL
same,MIC,"[5]; Streptococcus pyogenes, Table 2, S. pyogenes MB143 (macrolide rest.), read-out: MIC",0.12 µg/mL
same,MIC,"[5]; Table 3, S. pyogenes ATCC 19615",0.12 µg/mL
same,MIC,"[5]; Table 3, S. pyogenes MB143 (macrolide rest.)",0.12 µg/mL
same,MIC,"[5]; Table 4, S. pyogenes ATCC 19615",0.12 µg/mL
same,MIC,"[5]; Table 4, S. pyogenes MB000143",0.12 µg/mL
same,MIC,"[6]; Table 2, S. hemolyticus NRS50, read-out: MIC",0.12 µg/mL
same,MIC,"[6]; Table 2, S. hemolyticus NRS116, read-out: MIC",0.25 µg/mL
same,MIC,"[6]; Table 3, S. hemolyticus NRS50",0.12 µg/mL
same,MIC,"[6]; Table 3, S. hemolyticus NRS116",0.25 µg/mL
same,MIC,"[6]; Table 4, S. hemolyticus NRS50",0.12 µg/mL
same,MIC,"[6]; Table 4, S. hemolyticus NRS116",0.25 µg/mL
